From patent US20230204569A1, “ANALYSIS DEVICE” (INCYTON GMBH, priority 2020, published 2023)

Assays:
[1] = system: Mouse fibroblast L929 cells
Description: A mitochondrial stress test was performed in a device of the present invention. Mouse fibroblast L929 cells were cultivated in the wells of a micro-titer plate at 37° C. and provided with fresh media in time intervals of 20 min.
A measurement cycle involved addition of following compounds at the indicated time points:
t=60 min: Addition of 1 μM oligomycin A
t=140 min: Addition of 1 μM antimycin A and 1 μM rotenone

[2] = system: L929 mouse fibroblast cells; experiment: Toxicology assay: OCR, ECAR and morphology under SLS; format: cell-based
Description: L929 mouse fibroblast cells were investigated under the influence of the reference toxicant sodium lauryl sulfate (SLS). The test settings included 12 h of pretreatment and 12 h of treatment with different concentrations of SLS. Throughout the assay, oxygen consumption and extracellular acidification, as well as morphology based on regular microscope images, were recorded.

[3] = 77.8 μg/ml SLS, first 3 h after SLS addition

| SMILES | Maximum respiration (OCR) as % of the basal respiration ([1]; 0.13 μM and 0.25 μM FCCP added at t=100 min after 1 μM oligomycin A) [%] | reserve capacity ([1]; maximum respiration under FCCP minus basal respiration) [%] | outcome after continuation of the treatment (12 h treatment) ([2]; 77.8 μg/ml SLS, continued treatment) | acidification (ECAR) [2, 3] | oxygen uptake (OCR) [2, 3] | OCRs and ECARs dose and time dependence ([2]; 77.8 μg/ml and 778 μg/ml SLS) |
| --- | --- | --- | --- | --- | --- | --- |
| N#CC(C#N)=NNc1ccc(OC(F)(F)F)cc1 [FCCP, carbonyl cyanide p-(trifluoromethoxy) phenylhydrazone] | 131 | 31 | – | – | – | – |
| CCCCCCCCCCCCOS(=O)(=O)[O-].[Na+] [SLS, sodium lauryl sulfate] | – | – | cell death and a drop in all metabolic values | increases | reduced | clear dose- and time-dependent reaction |
